Data: patent publication US20260193271A1, “PAN-KRAS INHIBITOR COMPOUND” (ADLAI NORTYE BIOPHARMA CO., LTD., priority 2022, published 2026)

Legend:
SW480 (G12V) = assay: In vitro cell proliferation inhibition test (CellTiter-Glo), SW480; format: cell-based; conditions: SW480 colon cell line, KRAS (p.G12V), 72 h co-incubation
In short: (§1)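 Cells were seeded at 1000-5000/well by doubling time and cultured overnight at 37 °C, 5% CO2. They were then exposed for 72 h to 10-point, 3-fold compound dilutions (final top 10 μM), and viability was read by CellTiter-Glo luminescence. IC50 came from normalized signals fitted by four-parameter regression.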

AsPC-1 (G12D) = assay: In vitro cell proliferation inhibition test (CellTiter-Glo), AsPC-1; format: cell-based; conditions: KRAS (p.G12D), 72 h co-incubation
In short: as §1

[1] = Homo sapiens, ASPC1, AsPC-1 pancreas cell line

Row | Structure (SMILES) | IC50 (SW480 (G12V); Homo sapiens) [nM] | IC50 (AsPC-1 (G12D); [1]) [nM] | IC50 (SW480 (G12V)) [nM] | IC50 (AsPC-1 (G12D); AsPC-1 pancreas cell line) [nM]
1 | CCn1c(-c2cc(-c3cnc(CN4CCCCC4)nc3)cnc2[C@H](C)OC)c2c3cc(ccc31)-c1csc(n1)C[C@H](NC(=O)[C@H]1C[C@@H]1C)C(=O)N1CCC[C@H](N1)C(=O)OCC(C)(C)C2 (atropisomer, axis not shown) [Compound 55, (1S,2S)-N-((6^3S,4S,Z)-1^1-ethyl-1^2-(2-((S)-1-methoxyethyl)-5-(2-(piperidin-1-ylmethyl)pyrimidin-5-yl)pyridin-3-yl)-10,10-dimethyl-5,7-dioxo-6^1,6^2,6^3,6^4,6^5,6^6-hexahydro-1^1H-8-oxa-2(4,2)-thiazola-1(5,3)-indola-6(1,3)-pyridazinacycloundecaphane-4-yl)-2-methylcyclopropane-1-carboxamide] | 15 | 6.8 | – | –
2 | CCn1c(-c2cc(-c3cnc(N4CCOCC4)nc3)cnc2[C@H](C)OC)c2c3cc(ccc31)-c1csc(n1)C[C@H](NC(=O)[C@H]1C[C@@H]1C)C(=O)N1CCC[C@H](N1)C(=O)OCC(C)(C)C2 (atropisomer, axis not shown) [Compound 56, (1S,2S)-N-((6^3S,4S,Z)-1^1-ethyl-1^2-(2-((S)-1-methoxyethyl)-5-(2-morpholinopyrimidin-5-yl)pyridin-3-yl)-10,10-dimethyl-5,7-dioxo-6^1,6^2,6^3,6^4,6^5,6^6-hexahydro-1^1H-8-oxa-2(4,2)-thiazola-1(5,3)-indola-6(1,3)-pyridazinacycloundecaphane-4-yl)-2-methylcyclopropane-1-carboxamide] | 21 | 16 | – | –
3 | CCn1c(-c2cc(-c3cnc(CN4CCN(CCOC)CC4)nc3)cnc2[C@H](C)OC)c2c3cc(ccc31)-c1csc(n1)C[C@H](NC(=O)[C@H]1C[C@@H]1C)C(=O)N1CCC[C@H](N1)C(=O)OCC(C)(C)C2 (atropisomer, axis not shown) [Compound 58, (1S,2S)-N-((6^3S,4S,Z)-1^1-ethyl-1^2-(2-((S)-1-methoxyethyl)-5-(2-((4-(2-methoxyethyl)piperazin-1-yl)methyl)pyrimidin-5-yl)pyridin-3-yl)-10,10-dimethyl-5,7-dioxo-6^1,6^2,6^3,6^4,6^5,6^6-hexahydro-1^1H-8-oxa-2(4,2)-thiazola-1(5,3)-indola-6(1,3)-pyridazinacycloundecaphane-4-yl)-2-methylcyclopropane-1-carboximide] | 30 | 68 | – | –
4 | CCn1c(-c2cc(-c3cnc(OC4CCN(C)CC4)nc3)cnc2[C@H](C)OC)c2c3cc(ccc31)-c1csc(n1)C[C@H](NC(=O)[C@H]1C[C@@H]1C)C(=O)N1CCC[C@H](N1)C(=O)OCC(C)(C)C2 (atropisomer, axis not shown) [Compound 60, (1S,2S)-N-((6^3S,4S,Z)-1^1-ethyl-1^2-(2-((S)-1-methoxyethyl)-5-(2-((1-methylpiperidin-4-yl)oxy)pyrimidin-5-yl)pyridin-3-yl)-10,10-dimethyl-5,7-dioxo-6^1,6^2,6^3,6^4,6^5,6^6-hexahydro-1^1H-8-oxa-2(4,2)-thiazola-1(5,3)-indola-6(1,3)-pyridazinacycloundecaphane-4-yl)-2-methylcyclopropane-1-carboxamide] | 12 | 1.6 | – | –
5 | CCn1c(-c2cc(-c3cnc(CN4CCN5CCOC[C@@H]5C4)nc3)cnc2[C@H](C)OC)c2c3cc(ccc31)-c1csc(n1)C[C@H](NC(=O)[C@H]1C[C@@H]1C)C(=O)N1CCC[C@H](N1)C(=O)OCC(C)(C)C2 (atropisomer, axis not shown) [Compound 61, (1S,2S)-N-((6^3S,4S,Z)-1^1-ethyl-1^2-(5-(2-(((S)-hexahydropyrazino[2,1-c][1,4]oxazin-8(1H)-yl)methyl)pyrimidin-5-yl)-2-((S)-1-methoxyethyl)pyridin-3-yl)-10,10-dimethyl-5,7-dioxo-6^1,6^2,6^3,6^4,6^5,6^6-hexahydro-1^1H-8-oxa-2(4,2)-thiazola-1(5,3)-indola-6(1,3)-pyridazinacycloundecaphane-4-yl)-2-methylcyclopropane-1-carboxamide] | 20 | 19 | – | –
6 | CCn1c(-c2cc(-c3cnn(C4CCN(C)CC4)c3)cnc2[C@H](C)OC)c2c3cc(ccc31)-c1csc(n1)C[C@H](NC(=O)[C@H]1C[C@@H]1C)C(=O)N1CCC[C@H](N1)C(=O)OCC(C)(C)C2 (atropisomer, axis not shown) [Compound 63, (1S,2S)-N-((6^3S,4S,Z)-1^1-ethyl-1^2-(2-((S)-1-methoxyethyl)-5-(1-(1-methylpiperidin-4-yl)-1H-pyrazol-4-yl)pyridin-3-yl)-10,10-dimethyl-5,7-dioxo-6^1,6^2,6^3,6^4,6^5,6^6-hexahydro-1^1H-8-oxa-2(4,2)-thiazola-1(5,3)-indola-6(1,3)-pyridazinacycloundecaphane-4-yl)-2-methylcyclopropane-1-carboxamide] | 71 | 48 | – | –
7 | CCn1c(-c2cc(-c3ccc4c(c3)CN(C)C4)cnc2C(C)OC)c2c3cc(ccc31)-c1csc(n1)CC(NC(=O)C1CC1C)C(=O)N1CCCC(N1)C(=O)OCC(C)(C)C2 [Compound 2′, (1S,2S)-N-((6^3S,4S,Z)-1^1-ethyl-1^2-(2-((S)-1-methoxyethyl)-5-(2-methylisoindolin-5-yl)pyridin-3-yl)-10,10-dimethyl-5,7-dioxo-6^1,6^2,6^3,6^4,6^5,6^6-hexahydro-1^1H-8-oxa-2(4,2)-thiazola-1(5,3)-indola-6(1,3)-pyridazinacycloundecaphane-4-yl)-2-methylcyclopropane-1-carboxamide] | – | – | 820 | 2500

Continued, values first:

Row | IC50 (SW480 (G12V); Homo sapiens) [nM] | IC50 (AsPC-1 (G12D); [1]) [nM] | IC50 (SW480 (G12V)) [nM] | IC50 (AsPC-1 (G12D); AsPC-1 pancreas cell line) [nM] | Structure (SMILES)
8 | 5.7 | 2.2 | – | – | CCn1c(-c2cc(-c3cnc(N4CCN(C)CC4)nc3)cnc2[C@H](C)OC)c2c3cc(ccc31)-c1csc(n1)C[C@H](NC(=O)[C@H]1C[C@@H]1C)C(=O)N1CCC[C@H](N1)C(=O)OCC(C)(C)C2 (atropisomer, axis not shown) [Compound 54, (1S,2S)-N-((6^3S,4S,Z)-1^1-ethyl-1^2-(2-((S)-1-methoxyethyl)-5-(2-(4-methylpiperazin-1-yl)pyrimidin-5-yl)pyridin-3-yl)-10,10-dimethyl-5,7-dioxo-6^1,6^2,6^3,6^4,6^5,6^6-hexahydro-1^1H-8-oxa-2(4,2)-thiazola-1(5,3)-indola-6(1,3)-pyridazinacycloundecaphane-4-yl)-2-methylcyclopropane-1-carboxamide]
9 | 4.6 | 5.6 | – | – | CCn1c(-c2cc(-c3cnc(OC)nc3)cnc2[C@H](C)OC)c2c3cc(ccc31)-c1csc(n1)C[C@H](NC(=O)[C@H]1C[C@@H]1C)C(=O)N1CCC[C@H](N1)C(=O)OCC(C)(C)C2 (atropisomer, axis not shown) [Compound 57, (1S,2S)-N-((6^3S,4S,Z)-1^1-ethyl-1^2-(2-((S)-1-methoxyethyl)-5-(2-methoxypyrimidin-5-yl)pyridin-3-yl)-10,10-dimethyl-5,7-dioxo-6^1,6^2,6^3,6^4,6^5,6^6-hexahydro-1H-8-oxa-2(4,2)-thiazola-1(5,3)-indola-6(1,3)-pyridazinacycloundecaphane-4-yl)-2-methylcyclopropane-1-carboxamide]
10 | 6.2 | 3 | – | – | CCn1c(-c2cc(-c3cnc(N(C)C)nc3)cnc2[C@H](C)OC)c2c3cc(ccc31)-c1csc(n1)C[C@H](NC(=O)[C@H]1C[C@@H]1C)C(=O)N1CCC[C@H](N1)C(=O)OCC(C)(C)C2 (atropisomer, axis not shown) [Compound 59, (1S,2S)-N-((6^3S,4S,Z)-1^2-(5-(2-(dimethylamino)pyrimidin-5-yl)-2-((S)-1-methoxyethyl)pyridin-3-yl)-1^1-ethyl-10,10-dimethyl-5,7-dioxo-6^1,6^2,6^3,6^4,6^5,6^6-hexahydro-1^1H-8-oxa-2(4,2)-thiazola-1(5,3)-indola-6(1,3)-pyridazinacycloundecaphane-4-yl)-2-methylcyclopropane-1-carboxamide]
11 | 3.4 | 10 | – | – | CCn1c(-c2cc(-c3cnc(CN4CCOCC4)nc3)cnc2[C@H](C)OC)c2c3cc(ccc31)-c1csc(n1)C[C@H](NC(=O)[C@H]1C[C@@H]1C)C(=O)N1CCC[C@H](N1)C(=O)OCC(C)(C)C2 (atropisomer, axis not shown) [Compound 66, (1S,2S)-N-((6^3S,4S,Z)-1^1-ethyl-1^2-(2-((S)-1-methoxyethyl)-5-(2-(morpholinomethyl)pyrimidin-5-yl)pyridin-3-yl)-10,10-dimethyl-5,7-dioxo-6^1,6^2,6^3,6^4,6^5,6^6-hexahydro-1H-8-oxa-2(4,2)-thiazola-1(5,3)-indola-6(1,3)-pyridazinacycloundecaphane-4-yl)-2-methylcyclopropane-1-carboxamide]
12 | 2 | 2.5 | – | – | CCn1c(-c2cc(-c3cccc(CN4CCOCC4)n3)cnc2[C@H](C)OC)c2c3cc(ccc31)-c1csc(n1)C[C@H](NC(=O)C1C[C@@H]1C)C(=O)N1CCC[C@H](N1)C(=O)OCC(C)(C)C2 (stereo partly drawn) [Compound 13, (1S,2S)-N-((6^3S,4S,Z)-1^1-ethyl-1^2-(6′-((S)-1-methoxyethyl)-6-(morpholinomethyl)-[2,3′-bipyridin]-5′-yl)-10,10-dimethyl-5,7-dioxo-6^1,6^2,6^3,6^4,6^5,6^6-hexahydro-1^1H-8-oxa-2(4,2)-thiazola-1(5,3)-indola-6(1,3)-pyridazinacycloundecaphane-4-yl)-2-methylcyclopropane-1-carboxamide]
13 | 2.8 | 1.7 | – | – | CCn1c(-c2cc(-c3ncc(CN4CCOCC4)cn3)cnc2[C@H](C)OC)c2c3cc(ccc31)-c1csc(n1)C[C@H](NC(=O)C1C[C@@H]1C)C(=O)N1CCC[C@H](N1)C(=O)OCC(C)(C)C2 (stereo partly drawn) [Compound 14, (1S,2S)-N-((6^3S,4S,Z)-1^1-ethyl-1^2-(2-((S)-1-methoxyethyl)-5-(5-(morpholinomethyl)pyrimidin-2-yl)pyridin-3-yl)-10,10-dimethyl-5,7-dioxo-6^1,6^2,6^3,6^4,6^5,6^6-hexahydro-1^1H-8-oxa-2(4,2)-thiazola-1(5,3)-indola-6(1,3)-pyridazinacycloundecaphane-4-yl)-2-methylcyclopropane-1-carboxamide]
